This note sets out measurements from patent US20250122218A1, “MODULATORS OF CYSTIC FIBROSIS TRANSMEMBRANE CONDUCTANCE REGULATOR” (Vertex Pharmaceuticals Incorporated, priority 2022, published 2025).

The target in this test is T1, CFTR in F508del/MF-HBE cells (Homo sapiens, UniProt P13569, DEL508-508).
T1 construct: human bronchial epithelial (HBE) cells derived from CF subjects heterozygous for F508del and a minimal function CFTR mutation; endogenous in cells; host or cells: primary human bronchial epithelial cells from CF subjects (F508del/MF-HBE)
T1 sequence (P13569 with tags, fused parts or gaps DEL508-508): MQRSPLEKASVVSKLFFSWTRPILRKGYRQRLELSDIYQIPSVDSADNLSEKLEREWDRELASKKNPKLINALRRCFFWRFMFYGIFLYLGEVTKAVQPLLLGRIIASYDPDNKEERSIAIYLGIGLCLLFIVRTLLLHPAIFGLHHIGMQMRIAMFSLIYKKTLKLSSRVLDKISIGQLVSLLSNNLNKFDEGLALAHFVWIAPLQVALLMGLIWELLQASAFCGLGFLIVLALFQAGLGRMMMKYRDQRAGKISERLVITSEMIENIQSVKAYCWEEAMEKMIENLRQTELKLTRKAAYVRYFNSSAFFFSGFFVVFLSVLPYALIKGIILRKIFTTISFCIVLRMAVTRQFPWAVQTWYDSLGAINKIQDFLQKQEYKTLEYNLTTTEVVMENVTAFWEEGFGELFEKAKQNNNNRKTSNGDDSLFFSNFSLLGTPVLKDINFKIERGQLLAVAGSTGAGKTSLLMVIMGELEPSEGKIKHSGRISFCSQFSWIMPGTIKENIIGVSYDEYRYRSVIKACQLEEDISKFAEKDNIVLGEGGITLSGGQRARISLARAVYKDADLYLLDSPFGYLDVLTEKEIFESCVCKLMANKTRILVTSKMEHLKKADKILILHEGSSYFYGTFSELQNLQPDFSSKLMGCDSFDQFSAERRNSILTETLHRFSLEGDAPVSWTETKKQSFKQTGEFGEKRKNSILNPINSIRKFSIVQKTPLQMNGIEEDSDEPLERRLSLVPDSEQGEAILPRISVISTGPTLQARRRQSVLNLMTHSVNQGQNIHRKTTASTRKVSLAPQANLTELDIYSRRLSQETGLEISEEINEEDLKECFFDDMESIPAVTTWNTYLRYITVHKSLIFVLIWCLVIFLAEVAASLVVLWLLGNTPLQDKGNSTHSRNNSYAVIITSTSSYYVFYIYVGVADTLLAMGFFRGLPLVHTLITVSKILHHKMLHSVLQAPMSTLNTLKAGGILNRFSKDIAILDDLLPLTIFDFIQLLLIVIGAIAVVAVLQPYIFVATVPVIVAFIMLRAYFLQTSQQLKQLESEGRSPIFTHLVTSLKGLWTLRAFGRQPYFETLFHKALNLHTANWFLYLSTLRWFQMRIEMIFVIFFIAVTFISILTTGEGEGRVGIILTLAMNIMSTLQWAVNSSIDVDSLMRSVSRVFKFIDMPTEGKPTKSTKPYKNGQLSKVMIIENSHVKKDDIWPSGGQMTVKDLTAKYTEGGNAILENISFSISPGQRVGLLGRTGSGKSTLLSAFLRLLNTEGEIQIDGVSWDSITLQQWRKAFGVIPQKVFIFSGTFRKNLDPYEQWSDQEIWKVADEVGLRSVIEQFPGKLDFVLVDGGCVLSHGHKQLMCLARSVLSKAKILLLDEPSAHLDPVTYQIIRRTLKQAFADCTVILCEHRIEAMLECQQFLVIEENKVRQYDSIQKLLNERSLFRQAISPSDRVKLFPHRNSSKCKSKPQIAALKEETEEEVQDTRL
Briefly: Ussing chamber assay of CFTR-mediated short-circuit currents (identification of potentiator compounds). In kind it is cell-based. The note with it: potentiator incubated 18-24 hours at 37° C. in combination with 10 μM corrector, in the presence of 20% human serum, CFTR-mediated ISC. The method in brief: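 F508del/MF-HBE cultures were preincubated 18-24 h at 37° C with potentiator plus 10 μM of a fixed corrector compound in 20% human serum; compounds were kept present during measurement. ISC was recorded under voltage clamp (0 mV, 37° C, amiloride apical) and taken as the 20 μM forskolin peak minus the current after inhibitor cocktail.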
For the compound `Nc1cc(C(F)(F)F)c2nc1-c1nnc(o1)C(O)(C(F)(F)F)CCCCN(Cc1ccccc1)C2=O` (single isomer, unassigned) [Compound 238, 16-amino-11-benzyl-6-hydroxy-6,14-bis(trifluoromethyl)-18-oxa-3,4,11,17-tetrazatricyclo [11.3.1.12,5] octadeca-1(17),2,4,13,15-pentaen-12-one], the EC50 is less than 500 nM.

For `Nc1cc(C(F)(F)F)c2nc1-c1nnc(o1)C(O)(C(F)(F)F)CCCCN(Cc1ccccc1)C2=O` (single isomer, unassigned) [Compound 239, 16-amino-11-benzyl-6-hydroxy-6,14-bis(trifluoromethyl)-18-oxa-3,4,11,17-tetrazatricyclo [11.3.1.12,5] octadeca-1(17),2,4,13,15-pentaen-12-one], the EC50 was less than 500 nM.

On to `Nc1cc(C(F)(F)F)c2nc1-c1nnc(o1)C(O)(C(F)(F)F)CCCCNC2=O` (single isomer, unassigned) [Compound 249, 16-amino-6-hydroxy-6,14-bis(trifluoromethyl)-18-oxa-3,4,11,17-tetrazatricyclo [11.3.1.12,5] octadeca-1(17),2,4,13,15-pentaen-12-one], for which the EC50 was less than 500 nM.

Regarding `Nc1cc(C(F)(F)F)c2nc1-c1nnc(o1)C(O)(C(F)(F)F)CCCCNC2=O` (single isomer, unassigned) [Compound 250, 16-amino-6-hydroxy-6,14-bis(trifluoromethyl)-18-oxa-3,4,11,17-tetrazatricyclo [11.3.1.12,5] octadeca-1(17),2,4,13,15-pentaen-12-one], the EC50 is greater than 1000 nM.

`Nc1cc(C(F)(F)F)c2nc1-c1nnc(o1)[C@@](O)(C(F)(F)F)CCCCCCC2=O` [Compound 6, (6R)-17-amino-6-hydroxy-6,15-bis(trifluoromethyl)-19-oxa-3,4,18-triazatricyclo[12.3.1.12,5]nonadeca-1(18),2,4,14,16-pentaen-13-one]: the EC50 is less than 500 nM.

Consider `Cn1cc2c(n1)-c1nc(c(N)cc1C(F)(F)F)-c1nnc(o1)C(O)(C(F)(F)F)CCCCC2` (stereo not shown) [Compound 24, 20-Amino-14-methyl-6,18-bis(trifluoromethyl)-22-oxa-3,4,14,15,21-pentaazatetracyclo[15.3.1.12,5.012,16]docosa-1(21),2,4,12,15,17,19-heptaen-6-ol], for which the 50% effective concentration (EC50) is greater than 1000 nM.

With `Nc1cc(C(F)(F)F)c2nc1-c1nnc(o1)[C@@](O)(C(F)(F)F)CCCC(F)(F)CCC2=O` [Compound 38, (6R)-17-amino-10,10-difluoro-6-hydroxy-6,15-bis(trifluoromethyl)-19-oxa-3,4,18-triazatricyclo[12.3.1.12,5]nonadeca-1(18),2,4,14,16-pentaen-13-one], the EC50 is less than 500 nM.

With `Nc1cc(C(F)(F)F)c2nc1-c1nnc(o1)[C@](O)(C(F)(F)F)CCCC(F)(F)CCC2=O` [Compound 39, (6S)-17-amino-10,10-difluoro-6-hydroxy-6,15-bis(trifluoromethyl)-19-oxa-3,4,18-triazatricyclo[12.3.1.12,5]nonadeca-1(18),2,4,14,16-pentaen-13-one], the EC50 lay within 500 to 1000 nM.

With `Nc1cc(C(F)(F)F)c2nc1-c1nnc(o1)[C@@](O)(C(F)(F)F)CCC(F)(F)CCCC2=O` [Compound 40, (6R)-17-amino-9,9-difluoro-6-hydroxy-6,15-bis(trifluoromethyl)-19-oxa-3,4,18-triazatricyclo[12.3.1.12,5]nonadeca-1(18),2,4,14,16-pentaen-13-one], the EC50 was less than 500 nM.

With `Nc1cc(C(F)(F)F)c2nc1-c1nnc(o1)[C@](O)(C(F)(F)F)CCC(F)(F)CCCC2=O` [Compound 41, (6S)-17-amino-9,9-difluoro-6-hydroxy-6,15-bis(trifluoromethyl)-19-oxa-3,4,18-triazatricyclo[12.3.1.12,5]nonadeca-1(18),2,4,14,16-pentaen-13-one], the EC50 is less than 500 nM.

With `Nc1cc(C(F)(F)F)c2nc1-c1nnc(o1)[C@@](O)(C(F)(F)F)CCCC(=O)CCC2(F)F` [Compound 42, (6R)-17-Amino-13,13-difluoro-6-hydroxy-6,15-bis(trifluoromethyl)-19-oxa-3,4,18-triazatricyclo[12.3.1.12,5]nonadeca-1(18),2,4,14,16-pentaen-10-one], the EC50 is less than 500 nM.

For `Nc1cc(C(F)(F)F)c2nc1-c1nnc(o1)[C@@](O)(C(F)(F)F)CCC(=O)CCCC2(F)F` [Compound 43, (6R)-17-amino-13,13-difluoro-6-hydroxy-6,15-bis(trifluoromethyl)-19-oxa-3,4,18-triazatricyclo[12.3.1.12,5]nonadeca-1(18),2,4,14,16-pentaen-9-one], the EC50 is less than 500 nM.

As for `Nc1cc(C(F)(F)F)c2nc1-c1nnc(o1)[C@@](O)(C(F)(F)F)CC(F)(F)CCCCC2=O` [Compound 44, (6R)-17-amino-8,8-difluoro-6-hydroxy-6,15-bis(trifluoromethyl)-19-oxa-3,4,18-triazatricyclo[12.3.1.12,5]nonadeca-1(18),2,4,14,16-pentaen-13-one], the EC50 was less than 500 nM.

With `CC1(C)CCCCC[C@](O)(C(F)(F)F)C2=NN=C(O2)c2nc(c(C(F)(F)F)cc2N)C1=O` [Compound 45, (6R)-17-amino-6-hydroxy-12,12-dimethyl-6,15-bis(trifluoromethyl)-19-oxa-3,4,18-triazatricyclo[12.3.1.12,5]nonadeca-1(18),2,4,14,16-pentaen-13-one], the EC50 is less than 500 nM.

Consider `CC1(C)CCCCC[C@@](O)(C(F)(F)F)C2=NN=C(O2)c2nc(c(C(F)(F)F)cc2N)C1=O` [Compound 46, (6S)-17-amino-6-hydroxy-12,12-dimethyl-6,15-bis(trifluoromethyl)-19-oxa-3,4,18-triazatricyclo[12.3.1.12,5]nonadeca-1(18),2,4,14,16-pentaen-13-one], for which the EC50 was less than 500 nM.

As to `CC1(C)CCCC[C@](O)(C(F)(F)F)C2=NN=C(O2)c2nc(c(C(F)(F)F)cc2N)C(=O)C1` [Compound 47, (6R)-17-amino-6-hydroxy-11,11-dimethyl-6,15-bis(trifluoromethyl)-19-oxa-3,4,18-triazatricyclo[12.3.1.12,5]nonadeca-1(18),2,4,14,16-pentaen-13-one], the EC50 was less than 500 nM.

For the compound `Nc1cc(C(F)(F)F)c2nc1-c1nnc(o1)[C@@](O)(C(F)(F)F)CCCCCC1(CCC1)C2=O` [Compound 48, (6R)-17-amino-6-hydroxy-6,15-bis(trifluoromethyl)spiro[19-oxa-3,4,18-triazatricyclo[12.3.1.12,5]nonadeca-1(18),2,4,14,16-pentaene-12,1′-cyclobutane]-13-one], the EC50 is less than 500 nM.

As for `Nc1cc(C(F)(F)F)c2nc1-c1nnc(o1)[C@@](O)(C(F)(F)F)CCCCCC1(CC1)C2=O` [Compound 49, (6R)-17-amino-6-hydroxy-6,15-bis(trifluoromethyl)spiro[19-oxa-3,4,18-triazatricyclo[12.3.1.12,5]nonadeca-1(18),2,4,14,16-pentaene-12,1′-cyclopropane]-13-one], the EC50 was less than 500 nM.

As to `CC1(C)CCCCC[C@](O)(C(F)(F)F)C2=NN=C(O2)c2nc(c(C(F)(F)F)cc2N)C1` [Compound 50, (6R)-17-amino-12,12-dimethyl-6,15-bis(trifluoromethyl)-19-oxa-3,4,18-triazatricyclo[12.3.1.12,5]nonadeca-1(18),2,4,14,16-pentaen-6-ol], the EC50 is less than 500 nM.

Consider `Nc1cc(C(F)(F)F)c2nc1-c1nnc(o1)C(O)(C(F)(F)F)CCCCN(Cc1ccccc1)C(=O)C2` (stereo not shown) [Compound 51, 17-amino-11-benzyl-6-hydroxy-6,15-bis(trifluoromethyl)-19-oxa-3,4,11,18-tetrazatricyclo[12.3.1.12,5]nonadeca-1(18),2,4,14,16-pentaen-12-one], for which the EC50 was less than 500 nM.

For `CC(C)N1CCCCC(O)(C(F)(F)F)C2=NN=C(O2)c2nc(c(C(F)(F)F)cc2N)CC1=O` (stereo not shown) [Compound 52, 17-amino-6-hydroxy-11-isopropyl-6,15-bis(trifluoromethyl)-19-oxa-3,4,11,18-tetrazatricyclo[12.3.1.12,5]nonadeca-1(18),2,4,14,16-pentaen-12-one], the EC50 is greater than 1000 nM.

As to `CN1CCCCC(O)(C(F)(F)F)C2=NN=C(O2)c2nc(c(C(F)(F)F)cc2N)CC1=O` (stereo not shown) [Compound 53, 17-amino-6-hydroxy-11-methyl-6,15-bis(trifluoromethyl)-19-oxa-3,4,11,18-tetrazatricyclo[12.3.1.12,5]nonadeca-1(18),2,4,14,16-pentaen-12-one], the EC50 is greater than 1000 nM.

`COC1CCCCc2ccc(F)c(c2)C(O)(C(F)(F)F)C2=NN=C(O2)c2nc1c(C(F)(F)F)cc2N` (stereo not shown) [Compound 61, 20-Amino-8-fluoro-16-methoxy-6,18-bis(trifluoromethyl)-23-oxa-3,4,21-triazatetracyclo[15.3.1.12,5.17,11]tricosa-1(21),2,4,7(22),8,10,17,19-octaen-6-ol]: the EC50 was less than 500 nM.

For `COC1CCCCc2ccc(F)c(c2)C(O)(C(F)(F)F)C2=NN=C(O2)c2nc1c(C(F)(F)F)cc2N` (stereo not shown) [Compound 62, 20-Amino-8-fluoro-16-methoxy-6,18-bis(trifluoromethyl)-23-oxa-3,4,21-triazatetracyclo[15.3.1.12,5.17,11]tricosa-1(21),2,4,7(22),8,10,17,19-octaen-6-ol], the EC50 is less than 500 nM.

With `N#CC1CCCCc2cccc(c2)C(O)(C(F)(F)F)C2=NN=C(O2)c2nc1c(C(F)(F)F)cc2N` (stereo not shown) [Compound 63, 20-amino-6-hydroxy-6,18-bis(trifluoromethyl)-23-oxa-3,4,21-triazatetracyclo[15.3.1.12,5.17,11]tricosa-1(21),2,4,7,9,11(22),17,19-octaene-16-carbonitrile], the EC50 was less than 500 nM.
